Laboratory results reported in US20160368919A1, “NOVEL PYRIDINE PYRAZINONES AS BET-FAMILY BROMODOMAIN INHIBITORS” (Pfizer Inc., priority 2015, published 2016).

Columns and labels:
BRD4 BD1 = molecular target: T1, BRD4 BD1 (Homo sapiens, UniProt O60885); assay: BRD4 BD1 Fluorescence Polarization (FP) competition binding assay; conditions: BRD4 BD1 40 nM, probe PFI-411FP 2 nM
T1 construct: His-tagged BRD4 BD1 (44-160); made in house
Method: Compound binding to BRD4 BD1 was assessed with a FP competition binding assay. […] All assay components were diluted in 50 mM HEPES pH 7.4 containing 0.08% bovine serum albumin (assay buffer). To start the assay, 8 μL of BRD4 BD1 was added to each well of a low volume 384-well black flat bottom microtiter plate (Corning 3820) containing 4 μl of various concentrations of test compound (each plate also contained positive and negative control wells to define the upper and lower limits of the assay signal). After addition of BRD4 BD1, the assay plate was incubated at room temperature (RT, 20° C.). After 15 minutes, 4 μL of PFI-411FP was added to each well and the assay plate was placed in the dark at RT. The final assay concentration (FAC) of PFI-411FP was 2 nM, the FAC of BRD4 BD1 was 40 nM, the FAC of test compound ranged from 120 to 0.0012 μM and the FAC of DMSO was 0.4%. After 60 min, polarization values were measured with an Envision 2103 multilabel reader (Perkin Elmer) using a Cy5 dual enhanced mirror and excitation at 620 nm and emission at 688 nm. The percent (%) effect was calculated for each concentration of test compound and was relative to the amount of polarization signal produced by the positive and negative control wells contained within each assay plate. The concentrations and % effect values for test compounds were plotted versus each other with a proprietary curve fitting program using a four-parameter logistic dose response equation and the concentration of compound required for 50% effect (IC50) was determined. The Ki values of competitive inhibitors were calculated using the equation described by Nikolovska-Coleska et al. (Development and optimization of a binding assay for the XIAP BIR3 domain using fluorescence polarization. Analytical Biochemistry (2004) 332: 261-273).

[1] = system: LPS-induced IL-6 production in human whole blood; assay: IL-6 human whole blood (HWB) assay, LPS-stimulated, HTRF detection; assay type: cell-based; conditions: 1 ng/ml LPS, 4 hours
Method: Compound effect on IL-6 production was determined using lipopolysaccharide (LPS)-stimulated human whole blood and an HTRF (Homogeneous Time-Resolved Fluorescence) IL-6 detection kit (Human IL6 HTRF Assay CisBio 62IL6PEC). HWB was collected by venous puncture from healthy donors, transferred to a 50 ml polypropylene tube containing sodium heparin (14.3 units per mL of HWB) and then placed in a 37° C. water bath until use. To start the assay, 80 μL of heparin-treated HWB containing 1 ng/ml of LPS (equivalent to LPS ˜EC80 with regard to stimulation of IL-6 production in HWB under these assay conditions) was added to each well of a 384-well, sterile, endotoxin-free, polypropylene plate (Greiner 781281) containing 160 nL of various concentrations of test compound (each plate also contained positive and negative control wells to define the upper and lower limits of the assay signal). The plate was then placed in a thermoshaker incubator set to 370C (Boekel 270440). The final assay concentration (FAC) of test compound ranged from 60 to 0.0006 μM and the FAC of DMSO was 0.2%. After 4 hours, the assay plate was removed from the incubator and centrifuged at 700×g for 10 minutes. 5 μL of the resulting upper plasma layer was removed from each well and diluted 1:2 with 1×Dulbecco's phosphate buffered saline (DPBS). 5 μL of this diluted plasma was then transferred to a white 384-well low volume assay plate (Greiner 784080) containing 5 μL of combined anti-IL-6-Cryptate and anti-IL-6-XL665 detection antibodies (per manufacturer's protocol). The plate was then sealed with a Top Seal (Perkin Elmer 6005185) and incubated at room temperature (RT, 20° C.). After 16-18 hrs (overnight), the HTRF assay signal was read on an Envision 2103 plate reader using a Lance Delfia Dual/Bias mirror TRF laser excitation and emission was measured at 665 nm and 615 nm respectively. The percent (%) effect was calculated for each concentration of test compound and was relative to the amount of HTRF signal produced by the positive and negative control wells contained within each assay plate. The concentrations and % effect values for test compounds were plotted versus each other with a proprietary curve fitting program using a four-parameter logistic dose response equation and the concentration of compound required for 50% effect (IC50) was determined.

Row | IC50 (BRD4 BD1) [µM] | IC50 [1] [µM] | Compound
1 | 0.348 | 0.722 | CCC(=O)N(C)c1ccc2nc(NCC(=O)NC)c(=O)n([C@H](c3ccccn3)C(C)C)c2n1 [Example 30, N-methyl-N-(2-{[2-(methylamino)-2-oxoethyl]amino}-4-[(1S)-2-methyl-1-(pyridin-2-yl)propyl]-3-oxo-3,4-dihydropyrido[2,3-b]pyrazin-6-yl)propanamide]
2 | 0.532 |  | CC[C@H](c1ccccc1)n1c(=O)c(NCCN2CCOCC2)nc2ccc(-c3c(C)noc3C)nc21 [Example 38, 6-(3,5-dimethyl-1,2-oxazol-4-yl)-2-{[2-(morpholin-4-yl)ethyl]amino}-4-[(1R)-1-phenylpropyl]pyrido[2,3-b]pyrazin-3(4H)-one]
3 | 1.58 |  | CCC(=O)N(C)c1ccc2nc(NCCC(=O)O)c(=O)n(C3(C4CCCC4)CC3)c2n1 [Example 24, N-{4-(1-cyclopentylcyclopropyl)-6-[methyl(propanoyl)amino]-3-oxo-3,4-dihdropyrido[2,3-b]pyrazin-2-yl}-beta-alanine]
4 | 0.117 | 2.05 | CC[C@@H](c1ccccc1)n1c(=O)c(NCCC(=O)O)nc2ccc(N(C)C(C)=O)nc21 [Example 3, N-{6-[acetyl(methyl)amino]-3-oxo-4-[(1S)-1-phenylpropyl]-3,4-dihydropyrido[2,3-b]pyrazin-2-yl}-beta-alanine]
5 | 0.913 | 22.5 | CC[C@@H](c1ccccc1)n1c(=O)c(NCCC(=O)O)nc2ccc(N(C)C(=O)N(C)C)nc21 [Example 22, N-{6-[(dimethylcarbamoyl)(methyl)amino]-3-oxo-4-[(1S)-1-phenylpropyl]-3,4-dihydropyrido[2,3-b]pyrazin-2-yl}-beta-alanine]
6 | 0.325 | 8.44 | CC[C@@H](c1ncccn1)n1c(=O)c(NCCC(=O)O)nc2ccc(-c3c(C)noc3C)nc21 [Example 45, N-{6-(3,5-dimethyl-1,2-oxazol-4-yl)-3-oxo-4-[(1S)-1-(pyrimidin-2-yl)propyl]-3,4-dihydropyrido[2,3-b]pyrazin-2-yl}-beta-alanine]
7 | 0.159 | 2.3 | CCC(=O)N(C)c1ccc2nc(NCCC(=O)O)c(=O)n([C@H](c3ccccn3)C(C)C)c2n1 [Example 23, N-{6-[methyl(propanol)amino]-4-[(1S)-2-methyl-1-(pyridin-2-yl)propyl]-3-oxo-3,4-dihydropyrido[2,3-b]pyrazin-2-yl}-beta-alanine]
8 | 0.167 | 0.426 | CCC(=O)N(C)c1ccc2nc(NCCC(=O)NC)c(=O)n([C@H](c3ccccn3)C(C)C)c2n1 [Example 34, N-methyl-N^3-{6-[methyl(propanoyl)amino]-4-[(1S)-2-methyl-1-(pyridin-2-yl)propyl]-3-oxo-3,4-dihydropyrido[2,3-b]pyrazin-2-yl}-beta-alaninamide]
9 | 4.03 |  | CCC(=O)N(C)c1ccc2nc(NCC(=O)NC)c(=O)n(C(COC)COC)c2n1 [Example 19, N-(4-(1,3-dimethoxypropan-2-yl)-2-((2-(methylamino)-2-oxoethyl)amino)-3-oxo-3,4-dihydropyrido[2,3-b]pyrazin-6-yl)-N-methylpropionamide]
10 | 0.576 | 8.35 | COc1ccccc1[C@H](C)n1c(=O)c(NCCC(=O)O)nc2ccc(-c3c(C)noc3C)nc21 [Example 43, N-{6-(3,5-dimethyl-1,2-oxazol-4-yl)-4-[(1S)-1-(2-methoxyphenyl)ethyl]-3-oxo-3,4-dihydropyrido[2,3-b]pyrazin-2-yl}-beta-alanine]
11 | 0.11 | 0.164 | CCC(=O)N(C)c1ccc2nc(NCCC(=O)NC)c(=O)n([C@@H](COC)c3ccccc3)c2n1 [Example 31, N^3-{4-[(1R)-2-methoxy-1-phenylethyl]-6-[methyl(propanoyl)amino]-3-oxo-3,4-dihydropyrido[2,3-b]pyrazin-2-yl}-N-methyl-beta-alaninamide]
12 | 3.88 |  | CC[C@H](COC)n1c(=O)c(NCCC(=O)O)nc2ccc(N(C)C(C)=O)nc21 [Example 16, N-{6-[acetyl(methyl)amino]-4-[(2R)-1-methoxybutan-2-yl]-3-oxo-3,4-dihydropyrido[2,3-b]pyrazin-2-yl}-beta-alanine]
13 | 0.805 | 18.1 | CCC(=O)N(C)c1ccc2nc(NCCC(=O)O)c(=O)n(C3(c4ccccc4)CCC3)c2n1 [Example 12, N-{6-[methyl(propanol)amino]-3-oxo-4-(1-phenylcyclobutyl)-3,4-dihydropyrido[2,3-b]pyrazin-2-yl}-beta-alanine]
14 | 6.37 |  | CC[C@@H](c1ccccc1)n1c(=O)c(NCCC(=O)O)nc2ccc(N(C)C(=O)C3CC(C)(C)C3)nc21 [Example 25, N-(6-{[(3,3-dimethylcyclobutyl)carbonyl](methyl)amino}-3-oxo-4-[(1S)-1-phenylpropyl]-3,4-dihydropyrido[2,3-b]pyrazin-2-yl)-beta-alanine]
15 | 2.48 |  | CCOc1ccccc1Cn1c(=O)c(NCCN2CCOCC2)nc2ccc(-c3c(C)noc3C)nc21 [Example 36, 6-(3,5-dimethyl-1,2-oxazol-4-yl)-4-(2-ethoxybenzyl)-2-{[2-(morpholin-4-yl)ethyl]amino}pyrido[2,3-b]pyrazin-3(4H)-one]
16 | 4.19 |  | CCC(=O)N(C)c1ccc2nc(NCC(=O)NC)c(=O)n([C@H](CC)COC)c2n1 [Example 18, N-(4-[(2R)-1-methoxybutan-2-yl]-2-{[2-(methylamino)-2-oxoethyl]amino}-3-oxo-3,4-dihydropyrido[2,3-b]pyrazin-6-yl)-N-methylpropanamide]
17 | 4.87 |  | Cc1noc(C)c1-c1ccc2nc(NCCC(=O)O)c(=O)n(C3CCOCC3)c2n1 [Example 49, N-[6-(3,5-dimethyl-1,2-oxazol-4-yl)-3-oxo-4-(tetrahydro-2H-pyran-4-yl)-3,4-dihydropyrido[2,3-b]pyrazin-2-yl]-beta-alanine]
18 | 2.71 |  | CCN(C(C)=O)c1ccc2nc(NCCC(=O)O)c(=O)n([C@@H](C)c3ccccc3OC)c2n1 [Example 2, N-{6-[acetyl(ethyl)amino]-4-[(1S)-1-(2-methoxyphenyl)ethyl]-3-oxo-3,4-dihydropyrido[2,3-b]pyrazin-2-yl}-beta-alanine]
19 | 10.2 |  | CCC(=O)N(C)c1ccc2nc(NCCC(=O)O)c(=O)n([C@@H]3COC[C@H]3c3ccccc3)c2n1 [Example 15, N-{6-[methyl(propanoyl)amino]-3-oxo-4-[(3S,4S)-4-phenyltetrahydrofuran-3-yl]-3,4-dihydropyrido[2,3-b]pyrazin-2-yl}-beta-alanine]
20 | 1.5 |  | CC[C@@H](c1ccccc1)n1c(=O)c(NCCC(=O)O)nc2ccc(N(C)C(=O)C3COC3)nc21 [Example 27, N-{6-[methyl(oxetan-3-ylcarbonyl)amino]-3-oxo-4-[(1S)-1-phenylpropyl]-3,4-dihydropyrido[2,3-b]pyrazin-2-yl}-beta-alanine]
21 | 0.474 |  | Cc1noc(C)c1-c1ccc2nc(NCCN3CCOCC3)c(=O)n(Cc3ccccc3)c2n1 [Example 37, 4-benzyl-6-(3,5-dimethyl-1,2-oxazol-4-yl)-2-{[2-(morpholin-4-yl)ethyl]amino}pyrido[2,3-b]pyrazin-3(4H)-one]
22 | 7.59 |  | CC[C@@H](c1ccccc1)n1c(=O)c(NCCC(=O)O)nc2ccc(N(C)C(=O)C3CC(F)(F)C3)nc21 [Example 26, N-(6-{[(3,3-difluorocyclobutyl)carbonyl](methyl)amino}-3-oxo-4-[(1S)-1-phenylpropyl]-3,4-dihydropyrido[2,3-b]pyrazin-2-yl)-beta-alanine]
